pEC50: −log10 of the molar value.
Assays:
HepG2 [1] = experiment: Mitochondrial toxicity in human HepG2 cells assessed as lactate dehydrogenase release up to 100 uM; format: cell-based
Hepatitis B virus [2] = experiment: Antiviral activity against entecavir-resistant Hepatitis B virus harboring L180M/M204V/S202G triple mutant infected in human HuH7 cells; format: functional, organism-based; conditions: Huh-7
[3] = Cytotoxicity against human HuH7 cells; format: cell-based, Huh-7
Hepatitis B virus [4] = experiment: Antiviral activity against wild type Hepatitis B virus infected in human HuH7 cells; format: functional, organism-based; conditions: Huh-7
HepG2 [5] = experiment: Mitochondrial toxicity in human HepG2 cells assessed as lactate dehydrogenase release up to 200 uM; format: cell-based
Hepatitis B virus [6] = experiment: Selectivity ratio of EC50 for entecavir-resistant Hepatitis B virus harboring L180M/M204V/S202G triple mutant to EC50 for wild type Hepatitis B virus; format: functional

SMILES	Activity (HepG2 [1])	pEC50 (Hepatitis B virus [2])	CC50 [3]	pEC50 (Hepatitis B virus [4])	EC90 (Hepatitis B virus [4])	Activity (HepG2 [5])	Ratio EC50 (Hepatitis B virus [6])
C=C1[C@@H](n2cnc3c(N)ncnc32)[C@H](F)[C@H](O)[C@H]1CO	Non-toxic	6.17	> 300 µM	6.26	6 µM	–	–
Cc1cn([C@H]2C[C@H](N=[N+]=[N-])[C@@H](CO)O2)c(=O)[nH]c1=O [ZIDOVUDINE]	–	–	–	–	–	Toxic	–
C=C1[C@@H](n2cnc3c(N)ncnc32)[C@H](F)[C@H](O)[C@H]1COP(=O)(N[C@@H](C)C(=O)OC)Oc1ccccc1 (stereo not given in full)	–	7.27	> 300 µM	7.21	0.46 µM	–	–
Nc1ccn([C@@H]2CS[C@H](CO)O2)c(=O)n1 [LAMIVUDINE]	–	< 3.30	> 300 µM	7.25	0.142 µM	Non-toxic	–
C=C1[C@H](CO)[C@@H](O)C[C@@H]1n1cnc2c(=O)[nH]c(N)nc21.O [ENTECAVIR]	–	5.92	28 µM	8.10	0.033 µM	–	150

Reference: ChEMBL document CHEMBL2321711, “2'-Fluoro-6'-methylene-carbocyclic adenosine phosphoramidate (FMCAP) prodrug: in vitro anti-HBV activity against the lamivudine-entecavir resistant triple mutant and its mechanism of action” (Bioorg Med Chem Lett, 2013)
